Drawing on patent US20170275269A1, “BENZYL SUBSTITUTED INDAZOLES AS BUB1 KINASE INHIBITORS” (Bayer Pharma Aktiengesellschaft, priority 2014, published 2017), this text covers IC50 for one molecule.

Experiment [1] has as its target T1, catalytic domain of human Bub1 (amino acids 704-1085) (Homo sapiens, UniProt O43683).
T1 construct: catalytic domain of human Bub1 (amino acids 704-1085); His6 (N); made in house; host or cells: Hi5 insect cells
As to the kind of experiment: Bub1 kinase assay (TR-FRET). The class given is biochemical. To be noted: 10 μM ATP, 1 μM peptide substrate; read-out: Biological Assay 1: Bub1 kinase assay median IC50. The protocol: To this end, 100-fold concentrated compound solutions (in DMSO) were previously prepared by serial dilution (1:3.4) of 2 mM stocks in a clear low volume 384-well source microtiter plate (Greiner Bio-One, Frickenhausen, Germany), from which 50 nL of compounds were transferred into a black low volume test microtiter plate from the same supplier. […] The resulting mixture (5 μL final volume) was incubated at 22° C. during 60 min., and the reaction was stopped by the addition of 5 μL of an aqueous EDTA-solution (50 mM EDTA, in 100 mM HEPES pH 7.5 and 0.2% (w/v) bovine serum albumin) which also contained the TR-FRET detection reagents (0.2 μM streptavidin-XL665 [Cisbio Bioassays, Codolet, France] and 1 nM anti-phosho-Serine antibody [Merck Millipore, cat. #35-001] and 0.4 nM LANCE EU-W1024 labeled anti-mouse IgG antibody [Perkin-Elmer, product no. AD0077, alternatively a Terbium-cryptate-labeled anti-mouse IgG antibody from Cisbio Bioassays can be used]). The stopped reaction mixture was further incubated 1 h at 22° C. in order to allow the formation of complexes between peptides and detection reagents. Subsequently, the amount of product was evaluated by measurement of the resonance energy transfer from the Eu-chelate-antibody complex recognizing the Phosphoserine residue to the streptavidin-XL665 bound to the biotin moiety of the peptide. […] IC50 values were calculated by fitting the normalized inhibition data to a 4-parameter logistic equation (Minimum, Maximum, IC50, Hill; Y=Max+(Min−Max)/(1+(X/IC50)Hill)).
Background: In TR-FRET formats the signal depends on donor and acceptor labels being close together.

Experiment [2] relates to HeLa human cervical cancer cell line. As to the kind of experiment: Proliferation assay (HeLa cell line). To be noted: Homo sapiens, 96 h, read-out: Biological Assay 2: Proliferation assay (HeLa cell line) median IC50.
Procedure: Cultivated tumor cells (cells were ordered from ATCC) were plated at a density of 3000 cells/well in a 96-well multititer plate in 200 μL of growth medium supplemented 10% fetal calf serum. After 24 hours, the cells of one plate (zero-point plate) were stained with crystal violet (see below), while the medium of the other plates was replaced by fresh culture medium (200 μL), to which the test substances were added in various concentrations (0 μM, as well as in the range of 0.001-10 μM; the final concentration of the solvent dimethyl sulfoxide was 0.5%). The cells were incubated for 4 days in the presence of test substances. Cell proliferation was determined by staining the cells with crystal violet: the cells were fixed by adding 20 μL/measuring point of an 11% glutaric aldehyde solution for 15 minutes at room temperature. After three washing cycles of the fixed cells with water, the plates were dried at room temperature. The cells were stained by adding 100 μL/measuring point of a 0.1% crystal violet solution (pH 3.0). After three washing cycles of the stained cells with water, the plates were dried at room temperature. The dye was dissolved by adding 100 μL/measuring point of a 10% acetic acid solution. Absorption was determined by photometry at a wavelength of 595 nm. The change of cell number, in percent, was calculated by normalization of the measured values to the absorption values of the zero-point plate (=0%) and the absorption of the untreated (0 μm) cells (=100%). The IC50 values were determined by means of a 4 parameter fit.
In experiment [3] the test system is HeLa human cervical tumor cells. In words: Proliferation Assay (HeLa+Paclitaxel). To be noted: read-out: Biological Assay 3.0: Proliferation Assay (HeLa + Paclitaxel):, 3 nM paclitaxel, 92 hours with test substance.
Procedure: Proliferation Assay (HeLa+Paclitaxel):
Cultivated HeLa human cervical tumor cells (DSMZ ACC-57) were plated at a density of 3000 cells/well in a 96-well multititer plate in 200 μL of growth medium supplemented 10% fetal calf serum. After 24 hours, the cells of one plate (zero-point plate) were stained with crystal violet (see below). The medium of the other plates was supplemented with 3 nM of paclitaxel (Sigma-Aldrich) and the cells were incubated at 37° C. After 4 hours the test substances were added in various concentrations (0 μM, as well as in the range of 0.001-10 μM; the final concentration of the solvent dimethyl sulfoxide was adjusted to 0.1%) using a Hewlett-Packard HP D300 Digital Dispenser. The cells were incubated for another 92 hours at 37° C. in the presence of test substances. Cell proliferation was determined by staining the cells with crystal violet: the cells were fixed by adding 20 μL/measuring point of an 11% glutaric aldehyde solution for 15 minutes at room temperature. After three washing cycles of the fixed cells with water, the plates were dried at room temperature. The cells were stained by adding 100 μL/measuring point of a 0.1% crystal violet solution (pH 3.0). After three washing cycles of the stained cells with water, the plates were dried at room temperature. The dye was dissolved by adding 100 μL/measuring point of a 10% acetic acid solution. Absorption was determined by photometry at a wavelength of 595 nm. The change of cell number, in percent, was calculated by normalization of the measured values to the absorption values of the zero-point plate (=0%) and the absorption of the untreated (0 μm) cells (=100%). The IC50 values were determined by means of a 4 parameter fit.

T1 sequence (O43683 704-1085): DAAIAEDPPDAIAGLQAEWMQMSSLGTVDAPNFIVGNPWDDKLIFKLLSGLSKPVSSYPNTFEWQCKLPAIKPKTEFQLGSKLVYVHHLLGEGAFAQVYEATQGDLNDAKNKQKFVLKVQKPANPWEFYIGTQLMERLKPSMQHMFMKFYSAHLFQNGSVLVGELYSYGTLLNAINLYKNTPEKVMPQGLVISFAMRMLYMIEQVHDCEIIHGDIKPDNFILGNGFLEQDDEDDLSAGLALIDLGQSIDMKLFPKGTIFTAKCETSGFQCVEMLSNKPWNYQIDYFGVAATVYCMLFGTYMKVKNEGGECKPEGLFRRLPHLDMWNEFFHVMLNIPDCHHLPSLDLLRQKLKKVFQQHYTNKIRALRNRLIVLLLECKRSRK

On to `CCOc1cc(F)c(Cn2nc(-c3ncc(OCCCN4CCN(C)CC4)c(Nc4ccncn4)n3)c3ccccc32)c(F)c1` [Example 2-1-6, 2-[1-(4-ethoxy-2,6-difluorobenzyl)-1H-indazol-3-yl]-5-[3-(4-methylpiperazin-1-yl)propoxy]-N-(pyrimidin-4-yl)pyrimidin-4-amine], for which the values for the IC50 in experiment [1], in experiment [2] and in experiment [3] were 0.0096 µM, 1.1 µM and 0.86 µM, respectively.
